Source: patent publication US6974804B2, “Esters” (Unilever Home & Personal Care USA, division of Conopco, Inc., priority 2000, dated 2005)

What was measured:
Type in all cases: physicochemical
[1] = Visual assessment score (clarity of gel in 1 cm cuvette); settings: for Clarity Visual (assessment score): scale −12 to 8
Description: A gel contained within a 1 cm thick cuvette was placed directly on to a sheet of white paper on which 21 sets of figures where printed in black. The size and thickness of the figures varied systematically and were numbered from −12 (the largest, thickest set) through 0 to 8 (the smallest thinnest set) The score given to each gel was the highest numbered set which could be read clearly through the gel, the higher the number, the higher the clarity.

[2] = Light transmission at 580 nm (% T); settings: 580 nm
Method: The translucency of a composition may be measured by placing a sample of standardised thickness in the light path of a spectrophotometer and measuring transmittance, as a percentage of light transmitted in the absence of the gel.
This test was carried out using a dual-beam spectrophotometer. The sample of composition was poured hot into a 4.5 ml cuvette made of poly(methyl-methacrylate) (PMMA) and allowed to cool to an ambient temperature of 20-25° C. Such a cuvette gives a 1 cm thickness of composition. […] A transmittence measured at any temperature in the range from 20-25° C. is usually adequately accurate, but measurement is made at 22° C. if more precision is required.

[3] = Gelling of water-immiscible cosmetic liquids in 96 well glass micro-titre plate; design: key: gel; g4: gel after overnight (18 hrs) storage at 4° C.; g22: gel after overnight (18 hrs) storage at 22° C.; sg: soft gel; sg22: soft gel after overnight (18 hrs) storage at 22° C.; solution; *: the test at 4° C. was not carried out; settings: for gelling of ISA: 150° C. 2.5 hours, cooled to ambient
Method: In this Example, various samples of esterified cellobiose prepared as in Example 1 or 2 above, were used to gel water-immiscible cosmetic liquids, in accordance with the procedure given below, in which a large number of gels can be prepared simultaneously.
The samples were tested in a 96 well (8×12 rows) glass micro-titre plate. […] About 0.01 or 0.02 g of each esterified cellobiose material was placed into 8 consecutive wells in a single row, so that each well contained approximately 5% or 10% of the cellobiose ester. The balance in each well comprised the cosmetic liquid by addition of approximately 0.2 g of the respective liquid to each cell. A glass lid was placed on top of the plate. The plate was carefully placed in a thermostatically controlled fan-assisted oven set at 150° C. for 2.5 hours. The plate was removed from the oven and allowed to cool naturally to ambient laboratory temperature. The contents of the wells were assessed at the end of the cooling period, by visual inspection and by poking the contents of each well with a micro-spatula. The plates were stored at […] for 18 hours and the contents inspected, and further stored for 18 hours at 4° C. and inspected for a third time. The results obtained in the tests are summarised in Table 5 below, in which the legend is as follows: […]

[4] = Stability testing of gels: crystal growth visible by eye on storage at 37° C.
Method: Gels were made up using 10% structurant in a 60:40 mixture of Hydrogenated Polyisobutene (Panalene L14E):DC245. The gels, in sealed glass bottles, were left to stand for 18 hrs at room temperature, after which they were transferred to an oven thermostatically controlled to 37° C. Samples were checked periodically for signs of crystal growth visible by eye. REF1 is cellobiose octanonanoate.
Gels were made up and tested in accordance with the procedure in Example 6, as such or modified by employing a weight ratio of 9% of REF1 and 1% of an additional structurant as specified in Table 13 below.
The test procedure of Example 9 was repeated, but using ACB structurant REF2 alone as the structurant or to which a CHME structurant was added.

[5] = 9% REF4 plus 1% of the named material in 60:40 hydrogenated polydecene:DC245
[6] = 9% REF4 plus 1% of the named material
[7] = Ex 2.6:REF 4 at stated weight ratio, total 10% in 60:40 w/w Silkflo 364NF:DC245
[8] = 5% cellobiose ester in Fluid AP
[9] = 5% cellobiose ester in Mineral oil
[10] = 5% cellobiose ester in Polydecene
[11] = 10% cellobiose ester in Fluid AP
[12] = 10% cellobiose ester in Mineral oil
[13] = 10% cellobiose ester in Polydecene
[14] = 9% REF2 and 1% of the specified ester in 60:40 hydrogenated polydecene:DC245
[15] = 60:40 hydrogenated polydecene:DC245 gelled with 9% REF2 and 1% of the specified cellobiose ester

| SMILES | Clarity Visual (appearance) [1, 5] | Clarity Visual (assessment score) [1, 6] | Clarity % T [2, 6] | gelling of DC556 ([3]; 5% cellobiose ester in DC556) | gelling of Fluid AP [3, 8] | gelling of ISA ([3]; 5% cellobiose ester in ISA) | gelling of Mineral oil [3, 9] | gelling of Polydecene [3, 10] | gelling of DC556 ([3]; 10% cellobiose ester in DC556) | gelling of Fluid AP [3, 11] | gelling of ISA ([3]; 10% cellobiose ester in ISA) | gelling of Mineral oil [3, 12] | gelling of Polydecene [3, 13] | further results |
| --- | --- | --- | --- | --- | --- | --- | --- | --- | --- | --- | --- | --- | --- | --- |
| CCCCCCCCCC(=O)OCC1OC(OC2C(COC(=O)CCCCCCCCC)OC(OC(=O)CCCCCCCCC)C(OC(=O)CCCCCCCCC)C2OC(=O)CCCCCCCCC)C(OC(=O)CCCCCCCCC)C(OC(=O)CCCCCCCCC)C1OC(=O)CCCCCCCCC (mixture of isomers) [REF 4, reference compound] | opaque | < −12 | 0.36% |  |  |  |  |  |  |  |  |  |  | Clarity Visual Score [1, 7]: <−12; Clarity % T [2, 7]: 0.36% |
| CCCCCCCCC(=O)OCC1OC(OC2C(COC(=O)CCCCCCCC)OC(OC(=O)C3CCCCC3)C(OC(=O)CCCCCCCC)C2OC(=O)CCCCCCCC)C(OC(=O)CCCCCCCC)C(OC(=O)CCCCCCCC)C1OC(=O)CCCCCCCC (mixture of isomers) [Ex 3.3, cellobiose heptanonanoate monocyclohexanoate] |  |  |  |  |  |  |  |  |  |  |  |  |  | Visual ([1]; gel in 60:40 w/w Silkflo 364:DC245, score scale −12 to 8): >8; % T ([2]; gel in 60:40 w/w Silkflo 364:DC245): 53% |
| CCCCCCCCCC(=O)OCC1OC(OC2C(COC(=O)CCCCCCCCC)OC(OC(=O)C3CCCCC3)C(OC(=O)CCCCCCCCC)C2OC(=O)CCCCCCCCC)C(OC(=O)CCCCCCCCC)C(OC(=O)CCCCCCCCC)C1OC(=O)CCCCCCCCC (mixture of isomers) [Ex 2.10] | translucent | −5 | 5.9% | gel | gel | g22 | gel | gel | gel | gel | gel | gel | gel |  |
| CCCCCCCCCC(=O)OCC1OC(O)C(OC(=O)CCCCCCCCC)C(OC(=O)CCCCCCCCC)C1OC1OC(COC(=O)CCCCCCCCC)C(OC(=O)CCCCCCCCC)C(OC(=O)CCCCCCCCC)C1OC(=O)CCCCCCCCC (mixture of isomers) [REF 6, reference compound] | opaque | < −12 | 0.8% |  |  |  |  |  |  |  |  |  |  |  |
| CCCCCCCCCC(=O)OCC1OC(OC2C(COC(=O)CCCCCCCCC)OC(OC(=O)c3ccccc3)C(OC(=O)CCCCCCCCC)C2OC(=O)CCCCCCCCC)C(OC(=O)CCCCCCCCC)C(OC(=O)CCCCCCCCC)C1OC(=O)CCCCCCCCC (mixture of isomers) [Ex 2.1] | translucent | −1 | 9.53% | gel | gel | gel | gel | gel | gel | gel | gel | gel | gel |  |
| CCCCCCCCC(=O)OC[C@H]1O[C@@H](O[C@H]2[C@H](OC(=O)CCCCCCCC)[C@@H](OC(=O)CCCCCCCC)C(OC(=O)CCCCCCCC)O[C@@H]2COC(=O)CCCCCCCC)[C@H](OC(=O)CCCCCCCC)[C@@H](OC(=O)CCCCCCCC)[C@@H]1OC(=O)CCCCCCCC (stereo partly shown) [REF 1, cellobiose octanonanoate] |  |  |  |  |  |  |  |  |  |  |  |  |  | Observation ([4]; 10% structurant in 60:40 Hydrogenated Polyisobutene (Panalene L14E):DC245, after 18 hrs at RT): Small crystals visible in gel after; Observation ([4]; 10% structurant in 60:40 Hydrogenated Polyisobutene (Panalene L14E):DC245, after 18 hrs at RT, listed as REF1): Small crystals visible in gel after 18; Observation ([4]; 10% structurant in 60:40 Panalene L14E:DC245, after 6 hrs at 37° C.): More and bigger crystals after 6 hrs; Observation ([4]; 10% structurant in 60:40 Panalene L14E:DC245, after 6 hrs at 37° C., listed as REF1): More and bigger crystals after 6 hrs at; Observation ([4]; 10% structurant in 60:40 Panalene L14E:DC245, after 3 days at 37° C.): Crystals throughout gel after 3 days; Observation ([4]; 10% structurant in 60:40 Panalene L14E:DC245, after 3 days at 37° C., listed as REF1): 37° C.; Crystals throughout gel after 3 days |
| CCCCCCCCCCCCCCCC(=O)OC1OC(COC(=O)CCCCCCCC)C(OC2OC(COC(=O)CCCCCCCC)C(OC(=O)CCCCCCCC)C(OC(=O)CCCCCCCC)C2OC(=O)CCCCCCCC)C(OC(=O)CCCCCCCC)C1OC(=O)CCCCCCCC (mixture of isomers) [Ex 1.9] |  |  |  | gel | gel | g22 | g22 | gel |  |  |  |  |  | gelling of IPM ([3]; 5% cellobiose ester in IPM): g4; gelling of IPM ([3]; 10% cellobiose ester in IPM): g4; Clarity Visual (assessment score) [1, 14]: > 8; Clarity Visual (appearance) [1, 15]: transparent; Clarity % T [2, 14]: 45% |
| CCCCCCCCCC(=O)OCC1OC(OC2C(COC(=O)CCCCCCCCC)OC(OC(=O)c3ccccc3)C(OC(=O)CCCCCCCCC)C2OC(=O)CCCCCCCCC)C(OC(=O)CCCCCCCCC)C(OC(=O)CCCCCCCCC)C1OC(=O)CCCCCCCCC (mixture of isomers) [Ex 2.6] | translucent | −8 | 4.5% |  |  |  |  |  |  |  |  |  |  |  |
| CCCCCCCCCCCCCCCC(=O)OC1OC(COC(=O)CCCCCCCC)C(OC2OC(COC(=O)CCCCCCCC)C(OC(=O)CCCCCCCC)C(OC(=O)CCCCCCCC)C2OC(=O)CCCCCCCC)C(OC(=O)CCCCCCCC)C1OC(=O)CCCCCCCC (mixture of isomers) [Ex 1.8] |  |  |  | gel | gel | g22 | g22 | gel | gel | gel | g22 | g22 | gel | Observations ([4]; 9% of REF1 and 1% of additional structurant, after 15 days at 37° C.): No crystals after 15 days at 37 °C |
| CCCCCCCCCC(=O)OCC1OC(OC2C(COC(=O)CCCCCCCCC)OC(OC(=O)c3ccc4ccccc4c3)C(OC(=O)CCCCCCCCC)C2OC(=O)CCCCCCCCC)C(OC(=O)CCCCCCCCC)C(OC(=O)CCCCCCCCC)C1OC(=O)CCCCCCCCC (mixture of isomers) [Ex 2.7] | translucent | 0 | 8.7% | gel | gel | gel | gel | gel | gel | gel | gel | gel | gel |  |
| CCCCCCCCC(=O)OCC1OC(O)C(OC(=O)CCCCCCCC)C(OC(=O)CCCCCCCC)C1OC1OC(COC(=O)CCCCCCCC)C(OC(=O)CCCCCCCC)C(OC(=O)CCCCCCCC)C1OC(=O)CCCCCCCC (mixture of isomers) [REF 5, reference compound] |  |  |  |  |  |  |  |  |  |  |  |  |  | Clarity Visual (assessment score) [1, 14]: translucent 4; Clarity Visual (appearance) [1, 15]: transparent/; Clarity % T [2, 14]: 31% |
